Source: patent publication US5135847A, “Substrate composition for alkaline phosphatase and method for assay using same” (Becton, Dickinson and Company, priority 1988, dated 1992)

Columns and labels:
AP from the intestine = conditions: intestinal versus nonintestinal AP; cited from earlier work
[1] = pH 7.9 versus pH 2; cited from earlier work
[2] = test system: AP from several mammalian tissue types; conditions: cited from earlier work
[3] = test system: bovine liver alkaline phosphatase; experiment: Accelerated stability in various pH 9.8 buffers at 45° C.; functional inhibitor measured by inhibition of bovine liver alkaline phosphatase; assay type: physicochemical; conditions: for Percent of Functional Levamisole Remaining: 45° C., Day 0
Procedure: Various buffers were prepared at 100 mM concentrations, containing 1 mM magnesium chloride, and adjusted to pH 9.8. […] (accelerated decomposition study). […] Bovine liver AP was added and the reaction kinetics were followed at 405 nm.

[4] = test system: bovine liver alkaline phosphatase; experiment: Potency as alkaline phosphatase inhibitor relative to levamisole; assay type: biochemical

Compound	less potent toward AP from the intestine than toward AP from several mammalian tissue types (AP from the intestine)	decomposed faster at pH 7.9 than at pH 2 [1] [times]	inhibition of AP from several mammalian tissue types [2]	Percent of Functional Levamisole Remaining ([3]; AMP buffer 100 mM, 1 mM magnesium chloride, pH 9.8, 1 mM levamisole) [%]	Percent of Functional Levamisole Remaining ([3]; AMPD buffer 100 mM, 1 mM magnesium chloride, pH 9.8, 1 mM levamisole) [%]	Percent of Functional Levamisole Remaining ([3]; Carbonate buffer 100 mM, 1 mM magnesium chloride, pH 9.8, 1 mM levamisole) [%]	Percent of Functional Levamisole Remaining ([3]; Diethanolamine buffer 100 mM, 1 mM magnesium chloride, pH 9.8, 1 mM levamisole) [%]	Percent of Functional Levamisole Remaining ([3]; Glycine buffer 100 mM, 1 mM magnesium chloride, pH 9.8, 1 mM levamisole) [%]	Percent of Functional Levamisole Remaining ([3]; Triethanolamine buffer 100 mM, 1 mM magnesium chloride, pH 9.8, 1 mM levamisole) [%]	stability in AMPD and particularly in AMP compared with other buffers ([3]; pH 9.8, 45° C.)	more potent than levamisole [4]	Percent of Functional Levamisole Remaining ([3]; AMP buffer, pH 9.8, 0.1 mM p-bromolevamisole) [%]	Percent of Functional Levamisole Remaining ([3]; AMPD buffer, pH 9.8, 0.1 mM p-bromolevamisole) [%]	Percent of Functional Levamisole Remaining ([3]; Carbonate buffer, pH 9.8, 0.1 mM p-bromolevamisole) [%]	Percent of Functional Levamisole Remaining ([3]; Diethanolamine buffer, pH 9.8, 0.1 mM p-bromolevamisole) [%]	Percent of Functional Levamisole Remaining ([3]; Glycine buffer, pH 9.8, 0.1 mM p-bromolevamisole) [%]	Percent of Functional Levamisole Remaining ([3]; Triethanolamine buffer, pH 9.8, 0.1 mM p-bromolevamisole) [%]	decomposition compared with the parent compound (levamisole) ([3]; pH 9.8, 45° C.)
c1ccc([C@H]2CN3CCSC3=N2)cc1 [levamisole, (-)2,3,5,6-tetrahydro-6-phenylimidazo[1,2-b]thiazole]	approximately 100 fold	70	potent inhibitor	100	100	100	100	100	100	substantially greater								
Brc1ccc([C@H]2CN3CCSC3=N2)cc1 [p-bromolevamisole]											approximately 10 fold	100	100	100	100	100	100	quite a bit faster
